{
  "source": "patent US20260315653A1",
  "about": "“ANTICOAGULANT COMPOSITIONS COMPRISING ANTI-PLATELET AND ANTI-INFLAMMATORY DRUGS AND METHODS AND DEVICES FOR THEIR USE” (Elixir Medical Corporation, priority 2023, published 2026)",
  "key": {"[1]": {"experiment": "pH of 1 mg/ml EDTA or analogue in water or phosphate buffer", "format": "physicochemical", "conditions": "1 mg/ml in 0.01 M pH 7.4 phosphate buffer; 21.8-22.3 ° C.; listed as EDTA tetra sodium"}, "[2]": {"experiment": "pH of 1 mg/ml EDTA or analogue in water or phosphate buffer", "format": "physicochemical", "excerpt": "Based on the pH of EDTA or analogues in water and in 0.1M phosphate buffered saline as show in Table 2, EDTA disodium salt or dipotassium salt has a pH close to neutral pH in human body (6.42-6.92), whereas EDTA tetrasodium or trisodium has a very basic pH (>8.0) in human body. EDTA disodium or dipotassium is preferred in the examples."}, "[3]": {"system": "blood clotting (fresh pig blood)", "experiment": "Activated clotting time (ACT) of EDTA or analogues in fresh pig blood (Example 12)", "conditions": "for Increase in clotting time compared to control: control 154 sec", "protocol": "The activated clotting time (ACT) evaluation of EDTA or analogues was performed in fresh pig blood and recorded employing the Hemochron® Response device.\nThe ACT measurements were made in fresh pig blood. 1.0 ml of fresh pig blood was added to a test tube containing an activator (Hemochron@Celite@ ACT tubes, Lot F8FTE026 from Accriva Diagnostics, Inc.). A target amount of drug solution was then added into the test tube. The test tube was gently swirled so that the blood and drug was well-mixed. 0.1 ml of 0.3M calcium chloride was then added. The tube was gently shaken before being inserted into the Hemochron Response detector. The ACT read out was recorded and reported. The ACT of the control blood in the absence of any drug as first determined to establish a baseline. Then ACT was determined in the presence of different concentrations of EDTA or analogues as a single component."}, "[4]": {"experiment": "In-vitro elution of coated stents in 0.01M phosphate buffered saline at 37° C. (HPLC)", "format": "physicochemical", "conditions": "5 min", "protocol": "In-Vitro Elution evaluation of the EDTA coated stent above prepared was performed in 0.01M phosphate buffered saline at 37° C. water shaking bath then tested on High Performance Liquid Chromatography (HPLC). EDTA was separated from interfering peaks by a Carbon18 reverse phase column and quantified with an external EDTA calibration standard solution prepared at similar concentrations. The percentage of EDTA eluted was calculated during each time point.\nIn-Vitro Elution evaluation of Tetra acetoxymethyl ester EDTA coated stent was performed in 0.01M phosphate buffered saline at 37° C. water shaking bath then tested on High Performance Liquid Chromatography (HPLC). Tetra acetoxymethyl ester EDTA was separated from interfering peaks by a Carbon18 reverse phase column and quantified with an external tetra acetoxymethyl ester EDTA calibration standard solution prepared at similar concentrations. The percentage of tetra acetoxymethyl ester EDTA eluted was calculated during each time point.\nIn-Vitro Elution evaluation of the EDTA complex coated stent was performed in 0.01M phosphate buffered saline at 37° C. water shaking bath then tested on High Performance Liquid Chromatography (HPLC). EDTA disodium was separated from interfering peaks by a Carbon18 reverse phase column and quantified with an external EDTA disodium calibration standard solution prepared at similar concentrations. […]"}},
  "data": [
    {"smiles": "O=C(O)CN(CCN(CC(=O)O)CC(=O)O)CC(=O)O", "note": "[EDTA•4Na•xH2O]", "values": [
      {"measurement": "pH", "setting": "[1]", "value": 8.27},
      {"measurement": "pH", "setting": "[2]; 1 mg/ml in d-water, 21.8-22.0 ° C., listed as EDTA tetra sodium", "value": 9.61},
      {"measurement": "pH", "setting": "[2]; in water and phosphate buffered saline, listed as EDTA tetrasodium", "value": "> 8.0"},
      {"measurement": "Clotting time (ACT)", "setting": "[3]; 100 ng/mg", "value": 204, "unit": "s"},
      {"measurement": "Increase in clotting time compared to control", "setting": "[3]; 100 ng/mg", "value": 50, "unit": "s"},
      {"measurement": "Clotting time (ACT)", "setting": "[3]; 200 ng/mg", "value": 275, "unit": "s"},
      {"measurement": "Increase in clotting time compared to control", "setting": "[3]; 200 ng/mg", "value": 121, "unit": "s"},
      {"measurement": "Clotting time (ACT)", "setting": "[3]; 250 ng/mg", "value": 329, "unit": "s"},
      {"measurement": "Increase in clotting time compared to control", "setting": "[3]; 250 ng/mg", "value": 175, "unit": "s"},
      {"measurement": "Clotting time (ACT)", "setting": "[3]; 300 ng/mg", "value": ">500", "unit": "s"},
      {"measurement": "Increase in clotting time compared to control", "setting": "[3]; 300 ng/mg", "value": ">346", "unit": "s"},
      {"measurement": "blood coagulation compared to the blood control", "setting": "[3]; EDTA 200 ng/mg, sodium salts 300 ng/mg, listed as EDTA tetra sodium salt", "value": "The same trend"},
      {"measurement": "Cumulative percent release of EDTA", "setting": "[4]", "value": "about 99.8%"}
    ]}
  ]
}
